The target of this experiment is T1, PD-1/PD-L1 (Homo sapiens, UniProt Q9NZQ7).
T1 construct: TVMV protease site (C); made in house; host or cells: HEK293T cells
As to the kind of experiment: PD-1/PD-L1 Homogenous Time-Resolved Fluorescence (HTRF) binding assay. The following applies: PD-L1-His 10 nM, PD-1-Ig 20 nM; read-out: HTRF IC50. The source says:
The ability of the compounds of formula (I) to bind to PD-L1 was investigated using a PD-1/PD-L1 Homogenous Time-Resolved Fluorescence (HTRF) binding assay.
The interaction of PD-1 and PD-L1 can be assessed using soluble, purified preparations of the extracellular domains of the two proteins. The PD-1 and PD-L1 protein extracellular domains were expressed as fusion proteins with detection tags, for PD-1, the tag was the Fc portion of Immunoglobulin (PD-1-Ig) and for PD-L1 it was the 6 histidine motif (PD-L1-His). All binding studies were performed in an HTRF assay buffer consisting of dPBS supplemented with 0.1% […] bovine serum albumin and 0.05% (v/v) Tween-20. For the h/PD-L1-His binding assay, inhibitors were pre-incubated with PD-L1-His (10 nM final) for 15 m in 4 μl of assay buffer, followed by addition of PD-1-Ig (20 nM final) in 1 μl of assay buffer and further incubation for 15 m. HTRF detection was achieved using europium crypate-labeled anti-Ig (1 nM final) and allophycocyanin (APC) labeled anti-His (20 nM final). Antibodies were diluted in HTRF detection buffer and 5 μl was dispensed on top of the binding reaction. The reaction mixture was allowed to equilibrate for 30 minutes and the resulting signal (665 nm/620 nm ratio) was obtained using an EnVision fluorometer. Additional binding assays were established between the human proteins PD-1-Ig/PD-L2-His (20 & 5 nM, respectively) and CD80-His/PD-L1-Ig (100 & 10 nM, respectively).
Recombinant Proteins: Human PD-1 (25-167) with a C-terminal human Fc domain of immunoglobulin G (Ig) epitope tag [hPD-1 (25-167)-3S-IG] and human PD-L1 (18-239) with a C-terminal His epitope tag [hPD-L1(18-239)-TVMV-His] were expressed in HEK293T cells and purified sequentially by ProteinA affinity chromatography and size exclusion chromatography. Human PD-L2-His and CD80-His was obtained through commercial sources.
Table 1 lists the IC50 values for representative examples of this disclosure measured in the PD-1/PD-L1 Homogenous Time-Resolved Fluorescence (HTRF) binding assay.
(In general: Time-resolved FRET reads energy transfer from a long-lived donor to a nearby acceptor.)

Molecules are shown by their SMILES. Starred links: 1 amine or outer side, 2 acyl side, 3 side chain; linkers in the order of their positions; H or OH if unused. Positions of bridges follow the written chain, without caps; N, C: chain ends. Non-standard residues stand in square brackets, D forms with d. Residues, ends and D or L forms follow the SMILES beside them. *: point of attachment. Chenodeoxycholyl = C[C@H](CCC(=O)*)[C@H]1CC[C@H]2[C@@H]3[C@H](O)C[C@@H]4C[C@H](O)CC[C@]4(C)[C@H]3CC[C@]12C; Cholyl = C[C@H](CCC(=O)*)[C@H]1CC[C@H]2[C@@H]3[C@H](O)C[C@@H]4C[C@H](O)CC[C@]4(C)[C@H]3C[C@H](O)[C@]12C; X14 = C[C@H](CCC(=O)*)[C@H]1CC[C@H]2[C@H]3C(C[C@H](O)[C@]12C)[C@@]1(C)CC[C@@H](O)C[C@H]1C[C@H]3O; X16 = C[C@H](CCC(=O)*)[C@H]1CC[C@H]2[C@@H]3CC(=O)[C@@H]4CC(=O)CC[C@]4(C)[C@H]3CC[C@]12C; X13 = CC(C)CNC(=O)Cn1cc(C[C@H](N[*:1])C(=O)[*:2])c2ccccc21; Trp(1-CH2COOH) = N[C@@H](Cc1cn(CC(=O)O)c2ccccc12)C(=O)O; X31 = CCOC(=O)Cn1cc(C[C@H](N[*:1])C(=O)[*:2])c2ccccc21; Hyp = O=C(O)[C@@H]1C[C@@H](O)CN1; NMeNle = CCCC[C@H](NC)C(=O)O; NMeA = CN[C@@H](C)C(=O)O; Dab = NCC[C@H](N)C(=O)O; Dap = NC[C@H](N)C(=O)O

The values below come from US20230183292A1, “IMMUNOMODULATORS” (priority 2020, published 2023).

T1 sequence (Q9NZQ7 18-239): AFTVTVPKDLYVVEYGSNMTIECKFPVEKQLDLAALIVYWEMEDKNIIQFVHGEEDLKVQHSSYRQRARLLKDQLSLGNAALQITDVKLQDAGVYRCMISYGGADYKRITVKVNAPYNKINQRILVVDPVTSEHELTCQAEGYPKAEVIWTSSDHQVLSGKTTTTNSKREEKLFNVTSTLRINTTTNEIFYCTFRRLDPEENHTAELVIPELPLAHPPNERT

Consider `CCCC[C@H]1C(=O)N(C)[C@@H](CCCC)C(=O)N[C@@H](CC(C)C)C(=O)N[C@H](C(=O)NCC(N)=O)CSCC(=O)N[C@@H](Cc2ccc(O)cc2)C(=O)N(C)[C@@H](C)C(=O)N[C@@H](CC(N)=O)C(=O)N2CCC[C@H]2C(=O)N[C@@H](CNC(=O)CC[C@@H](C)[C@H]2CC[C@H]3[C@@H]4CC(=O)[C@@H]5CC(=O)CC[C@]5(C)[C@H]4CC[C@]23C)C(=O)N[C@@H](CC(C)C)C(=O)N2C[C@H](O)C[C@H]2C(=O)N[C@@H](Cc2c[nH]c3ccccc23)C(=O)N[C@@H](CCNC(=O)CC[C@@H](C)[C@H]2CC[C@H]3[C@@H]4CC(=O)[C@@H]5CC(=O)CC[C@]5(C)[C@H]4CC[C@]23C)C(=O)N[C@@H](Cc2cn(CC(=O)O)c3ccccc23)C(=O)N1C` [Example 1019] ({CH2CO}-Y[NMeA]NP[Dap](X16)L[Hyp]W[Dab](X16)[Trp(1-CH2COOH)][NMeNle][NMeNle]LCG-NH2; thioether N-14), for which the IC50 (commonly the concentration at which inhibition is half-maximal) was 13 nM. With `CCCC[C@H]1C(=O)N(C)[C@@H](CCCC)C(=O)N[C@@H](CC(C)C)C(=O)N[C@H](C(=O)NCC(N)=O)CSCC(=O)N[C@@H](Cc2ccc(O)cc2)C(=O)N(C)[C@@H](C)C(=O)N[C@@H](CC(N)=O)C(=O)N2CCC[C@H]2C(=O)N[C@@H](CNC(=O)CC[C@@H](C)[C@H]2CC[C@H]3[C@@H]4[C@H](O)C[C@@H]5C[C@H](O)CC[C@]5(C)[C@H]4CC[C@]23C)C(=O)N[C@@H](CC(C)C)C(=O)N2C[C@H](O)C[C@H]2C(=O)N[C@@H](Cc2c[nH]c3ccccc23)C(=O)N[C@@H](CCNC(=O)CC[C@@H](C)[C@H]2CC[C@H]3[C@@H]4[C@H](O)C[C@@H]5C[C@H](O)CC[C@]5(C)[C@H]4CC[C@]23C)C(=O)N[C@@H](Cc2cn(CC(=O)OCC)c3ccccc23)C(=O)N1C` [Example 2001] ({CH2CO}-Y[NMeA]NP[Dap](Chenodeoxycholyl)L[Hyp]W[Dab](Chenodeoxycholyl)[X31][NMeNle][NMeNle]LCG-NH2; thioether N-14), the IC50 came out at 220 nM.

Take `CCCC[C@H]1C(=O)N(C)[C@@H](CCCC)C(=O)N[C@@H](CC(C)C)C(=O)N[C@H](C(=O)NCC(N)=O)CSCC(=O)N[C@@H](Cc2ccc(O)cc2)C(=O)N(C)[C@@H](C)C(=O)N[C@@H](CC(N)=O)C(=O)N2CCC[C@H]2C(=O)N[C@@H](CNC(=O)CC[C@@H](C)[C@H]2CC[C@H]3[C@@H]4[C@H](O)C[C@@H]5C[C@H](O)CC[C@]5(C)[C@H]4C[C@H](O)[C@]23C)C(=O)N[C@@H](CC(C)C)C(=O)N2C[C@H](O)C[C@H]2C(=O)N[C@@H](Cc2c[nH]c3ccccc23)C(=O)N[C@@H](CCNC(=O)CC[C@@H](C)[C@H]2CC[C@H]3[C@H]4C(C[C@H](O)[C@]23C)[C@@]2(C)CC[C@@H](O)C[C@H]2C[C@H]4O)C(=O)N[C@@H](Cc2cn(CC(=O)NCC(C)C)c3ccccc23)C(=O)N1C` (stereo partly shown) [Example 2002] ({CH2CO}-Y[NMeA]NP[Dap](Cholyl)L[Hyp]W[Dab](X14)[X13][NMeNle][NMeNle]LCG-NH2; thioether N-14): the IC50 stood at 3300 nM. Consider `CCCC[C@H]1C(=O)N(C)[C@@H](CCCC)C(=O)N[C@@H](CC(C)C)C(=O)N[C@H](C(=O)NCC(N)=O)CSCC(=O)N[C@@H](Cc2ccc(O)cc2)C(=O)N(C)[C@@H](C)C(=O)N[C@@H](CC(N)=O)C(=O)N2CCC[C@H]2CN[C@@H](CNC(=O)CC[C@@H](C)[C@H]2CC[C@H]3[C@@H]4[C@H](O)C[C@@H]5C[C@H](O)CC[C@]5(C)[C@H]4C[C@H](O)[C@]23C)C(=O)N[C@@H](CC(C)C)C(=O)N2C[C@H](O)C[C@H]2C(=O)N[C@@H](Cc2c[nH]c3ccccc23)C(=O)N[C@@H](CCNC(=O)CC[C@@H](C)[C@H]2CC[C@H]3[C@@H]4[C@H](O)C[C@@H]5C[C@H](O)CC[C@]5(C)[C@H]4C[C@H](O)[C@]23C)C(=O)N[C@@H](Cc2cn(CC(=O)OC3CC3)c3ccccc23)C(=O)N1C` [Example 2003], for which the IC50 was found to be 970 nM.
